Assay results taken from patent publication US20250339445A1, “Modulators of Orphan Nuclear Receptors for Treating Pancreatitis, Glioblastoma, Sarcopenia and Stroke” (Emory University, priority 2020, published 2025).
“Also recorded” adds a separate entry of the source.

Assays:
[1] = test system: high-fat-fed C57BL/6 mice; assay: High-fat-diet-fed C57BL/6 mice treated with Compound 1 and/or antagomiR-122; assay type: in vivo
Experimental: C57BL/6 mice were fed a 50% high fat diet (HFD) for four weeks. The control cohort received three hydrodynamic tail vein injections of a 5 μg antagomiR-control and six i.p injections of saline over three weeks. A second cohort was hydrodynamic tail vein injected with 5 μg antagomiR-122 (the reverse complement that inhibits activity of miR-122) three times and i.p injections of saline six times over three weeks. A third cohort was injected i.p. with Compound 1 (7.5 mg/kg) twice a week plus antagomiR-control once a week over the course of 3 weeks. The final cohort was injected i.p. with Compound 1 (7.5 mg/kg) twice a week plus antagomiR-122 injections once a week over the course of 3 weeks.
(§1) Male C57BL/6J mice, 7 to 8 weeks old, were housed randomly in standard cages and were fed a HFD, or atherogenic diet (consisting 1% Chol and 0.5% cholic acid, see also Table 6). All mice had free access to water during the experimental period. During the feeding period body weight was monitored every 3 days. In the HFD experiment, after 4 or 6 weeks, the resultant obese mice were treated with antagomiR-122 (5 μg/mouse once a week for 3 weeks), or i.p. injected with Compound 1 (RORα agonist, 7.5 mg/kg twice a week for 3 weeks; or 15 mg/kg 3 times a week for 3 weeks). The obese control (HFD) group was administered only saline with DMSO and antagomiR-control. After 3 weeks of treatment mice were sacrificed and livers were taken for RNA-seq analysis. Livers, white adipose, and skeletal muscle tissues were frozen in liquid nitrogen or in optimum cutting temperature embedded frozen blocks, for further RNA and histologic analysis. In the atherogenic diet experiment mice were treated with 15 mg/kg Compound 1 after 3 weeks with the diet. After 3.5 weeks of treatment, mice were sacrificed, and the livers were frozen in liquid nitrogen or in optimum cutting temperature embedded frozen blocks. Plasma was collected from atherogenic diet-fed mice and saved in −20° C. for ALT and AST analysis using the Reflotron® Analyzer and test-strips (Roche).
In the HFD experiment, after 4 or 6 weeks, the resultant obese mice were treated with antagoMIR122 (5 μg/mouse once a week for 3 weeks), or i.p. injected with Compound 1 (RORα agonist, 7.5 mg/kg twice a week for 3 weeks; or 15 mg/kg 3 times a week for 3 weeks). The obese control (HFD) group was administered only saline with DMSO and antagomiR-control.
Mice were fed with a 50% HFD and after 4 weeks, when fatty liver was already established, they were treated with Compound 1, antagoMIR122 or both compounds together for an additional 3 weeks. […] The weighing of mice began at week 3, one week before treatments were initiated. […] The liver weight of the mice was in accordance with their body weight.

[2] = test system: high fat diet (HFD) C57BL/6 mice; assay: HFD-fed C57BL/6 mice, 15 mg/kg Compound 1 (Example 8); assay type: in vivo
Experimental: as §1
Experimental design: C57BL/6 mice fed for 6 weeks with high fat diet (HFD) were injected with 15 mg/kg Compound 1 (or saline+DMSO) 3 times a week for 3 weeks (n=6).

miR-122 = assay: Expression and secretion of RORα-regulated microRNA in Huh-7 cells (qRT-PCR); assay type: cell-based, human
Experimental: Secreted microRNA levels in the medium of Huh-7 cells were analyzed by qRT-PCR and were normalized to spiked C. elegans miR-39. miR-18 and miR-93 served as controls for secreted microRNA and were not affected following Compound 1 addition.
RNA extraction and quantitative Real-Time PCR analysis. Total RNA, including small RNAs, were isolated from […] of plasma or culture media samples using the miRNeasy Mini kit (Qiagen, Valencia, CA, USA) with 2 minor modifications. First, 200 μl of plasma or culture media were lysed with 1 ml of Qiazol solution. Second, a 50 pmol/1 of synthesized single strand Caenorhabditis elegans miRNA (cel-miR-39) was added as the spike-in control to monitor extraction efficiency. The remainder of the RNA extraction was performed according to the manufacturer's instructions. miRNAs were eluted with 30 μl of RNase-free water. Total RNA, including miRNAs, from cells or tissues were isolated using TRIzol reagent (Invitrogen, Carlsbad, CA, USA). cDNA was synthesized using the Quanta Biosciences qScript™ cDNA Synthesis Kit (95047-100) for mRNA analysis, and using the qScript™ microRNA cDNA Synthesis Kit (95107-100) for miRNAs analysis. qRT-PCR of miRNAs and mRNA was performed using the ABI 7900 HT Real-Time PCR System and a SYBR Green PCR Kit: Quanta Cat. #84018 and #84071 respectively. The fold expression and statistical significance were calculated using the 2-ΔΔ Ct method. All experiments were performed in triplicates.

[3] = Cellular toxicity assay, CEM cells; assay type: cell-based; conditions: human, CEM cells (human lymphoblastoid), compared to cycloheximide (+ control)
Experimental: (§2) The toxicity of the compounds was assessed in human PBM, CEM (human lymphoblastoid), and Huh-7 cells, as described previously (see Schinazi R. F., Sommadossi J.-P., Saalmann V., Cannon D. L., Xie M.-Y., Hart G. C., Smith G. A. & Hahn E. F. Antimicrob. Agents Chemother. 1990, 34, 1061-67). Cycloheximide was included as positive cytotoxic control, and untreated cells exposed to solvent were included as negative controls. The cytotoxicity IC50 was obtained from the concentration-response curve using the median effective method described previously (see Chou T.-C. & Talalay P. Adv. Enzyme Regul. 1984, 22, 27-55; Belen'kii M. S. & Schinazi R. F. Antiviral Res. 1994, 25, 1-11).

Huh7 cells = assay: LDH release from Huh7 cells; assay type: cell-based, human; conditions: Huh7, 16 h exposure
[4] = Cellular toxicity assay, Huh-7 cells; assay type: cell-based; conditions: human, compared to cycloheximide (+ control)
Experimental: as §2

Plasma half-life = assay type: in vivo, mice; conditions: mouse, read-out: plasma t1/2 (converted)

O=C1Nc2cc(C(=O)N3CCC(Cc4ccccc4)CC3)ccc2Nc2ccccc21 [Compound 1]
Hepatic lipid droplets and TG content ([1]; 50% HFD, 7.5 mg/kg twice a week, 3 weeks): reduced
Body weight, Compound 1 co-administered with antagomiR-122 ([1]; 50% HFD, 3 weeks): returned exactly to that of control animals
Dgat1 (MIR122 target gene) in the liver ([1]; 50% HFD, 3 weeks of treatment): reduced
Energy expenditure (β-hydroxybutyrate plasma level as surrogate marker) ([1]; 50% HFD, 3 weeks of treatment): increases energy expenditure; also recorded: increase
FGF21 (RORα target gene) in the liver ([1]; 50% HFD, 3 weeks of treatment): increased
MIR122 levels in plasma and muscle (secretion) ([1]; 50% HFD, 3 weeks of treatment): enhanced; also recorded: increase of MIR122
Mature MIR122 level in the liver ([1]; 50% HFD, 3 weeks of treatment): no increase
Muscle TG levels ([1]; 50% HFD, 3 weeks of treatment): reduced
pri- and pre-MIR122 in the liver ([1]; 50% HFD, 3 weeks of treatment): increased significantly
Body weight ([1]; 50% HFD, Compound 1 7.5 mg/kg i.p. twice a week, antagomiR once a week, 3 weeks, 7.5 mg/kg): weight steadily decreased; also recorded: reduces body weight; also recorded: significant decrease in body weight
Hepatic RORα level ([1]; HFD-fed mice): increased the RORα level to its level in mice fed normal diet
Expression of RORα-regulated genes FGF21 and Gpase6 ([2]; HFD 6 weeks, 15 mg/kg 3 times a week for 3 weeks, liver): significantly induced expression
miR-122 and precursors in plasma and liver ([2]; HFD 6 weeks, 15 mg/kg 3 times a week for 3 weeks, 15 mg/kg): induced expression and secretion; also recorded: increased
Hepatic synthesis of triglycerides ([2]; mice fed a HFD or atherogenic diet): reduced hepatic synthesis of triglycerides
Secreted control microRNA (miR-18, miR-93) in Huh-7 medium (miR-122; 1 μM, 24 hours): not affected
Secreted miR-122 level in Huh-7 medium (miR-122; 1 μM, 24 hours): increases secretion of miR-122
Cellular miR-122 levels (miR-122; Huh7, 16 h exposure): did not change
miR-122 secreted to the medium (miR-122; Huh7, 16 h exposure): significant miR-122 was secreted to the medium; also recorded: significant amount of MIR122 was secreted to the medium
CC50 [3]: 11 µM
Toxicity to the cells as measured by LDH release (Huh7 cells): no apparent toxicity
CC50 [4]: 10.4 µM
half-life (Plasma half-life): 2.7 h
